Data published in ChEMBL document CHEMBL4346752, “Discovery and evaluation of novel nitrodihydroimidazooxazoles as promising anti-tuberculosis agents” (Bioorg Med Chem Lett, 2019).
Converted amounts (≈) assume the structure as drawn.

Tests used:
[1] = Apparent permeability across basolateral to apical side in MDCK cells at […] incubated for 60 mins by HPLC analysis; assay type: ADME, cell-based, Canis lupus familiaris; details: dog; for Papp B→A at 1 h: MDCK
[2] = system: Mycobacterium tuberculosis; assay: Antimycobacterial activity against Mycobacterium tuberculosis H37Rv assessed as reduction in bacterial cell growth incubated for 8 days measured under aerobic MABA conditions by alamar blue staining based assay; assay type: functional; details: 192 h
[3] = system: Mycobacterium tuberculosis; assay: Antimycobacterial activity against Mycobacterium tuberculosis H37Rv assessed as reduction in bacterial cell growth incubated for 11 days measured under anaerobic LORA condition by luminescence assay; assay type: functional; details: 264 h
[4] = Apparent permeability across apical to basolateral side in MDCK cells at […] incubated for 60 mins by HPLC analysis; assay type: ADME, cell-based, Canis lupus familiaris; details: dog; for Papp A→B at 1 h: MDCK
[5] = Cytotoxicity against African green monkey Vero cells assessed as reduction in cell viability incubated for 72 hrs by MTT assay; assay type: cell-based; details: chlorocebus sabaeus
[6] = Efflux ratio of apparent permeability across basolateral to apical over apical to basolateral side in MDCK cells at […] incubated for 60 mins by HPLC analysis; assay type: ADME, cell-based, Canis lupus familiaris; details: dog
[7] = Solubility of the compound in water at pH 2 by HPLC analysis; assay type: physicochemical
[8] = Solubility of the compound in water at pH 6.5 by HPLC analysis; assay type: physicochemical

SMILES | MIC [2] [µg/mL] | MIC [3] [µg/mL] | CC50 at 72 h [5] [µg/mL] | further results
C[C@]1(COc2ccc(N3CCC(Oc4ccc(OC(F)(F)F)cc4)CC3)cc2)Cn2cc([N+](=O)[O-])nc2O1 | < 0.031 | 1.23 (≈ 2.3 µM) | – | Papp B→A at 1 h [1]: 0.17 ×10⁻⁶ cm/s; Papp A→B at 1 h [4]: 0.09 ×10⁻⁶ cm/s
C[C@]1(CN2CCc3nc(-c4cc(F)ccc4Cl)ccc3C2)Cn2cc([N+](=O)[O-])nc2O1 | 0.15 (≈ 0.338 µM) | 4.28 (≈ 9.64 µM) | > 32 | –
C[C@]1(CN2CCc3nc(-c4cc(F)cc(F)c4)ccc3C2)Cn2cc([N+](=O)[O-])nc2O1 | 0.03 (≈ 0.0702 µM) | 1.64 (≈ 3.84 µM) | > 32 | –
C[C@]1(CN2CCc3nc(-c4ccc(F)c(Cl)c4)ccc3C2)Cn2cc([N+](=O)[O-])nc2O1 | 0.03 (≈ 0.0676 µM) | 3.82 (≈ 8.61 µM) | > 32 | –
C[C@]1(CN2CCc3oc(-c4ccc(F)cc4)nc3C2)Cn2cc([N+](=O)[O-])nc2O1 | – | – | > 32 | –
C[C@]1(CN2CCc3nc(-c4ccccc4)ccc3C2)Cn2cc([N+](=O)[O-])nc2O1 | – | – | > 32 | efflux ratio at 1 h ([6]; MDCK): 1.35; solubility [7]: 130 µM (≈ 50.7 µg/mL); Papp B→A at 1 h [1]: 22.7 ×10⁻⁶ cm/s; solubility [8]: 3.35 µM (≈ 1.31 µg/mL); Papp A→B at 1 h [4]: 16.8 ×10⁻⁶ cm/s
C[C@]1(CN2CCc3nc(-c4ccccc4F)ccc3C2)Cn2cc([N+](=O)[O-])nc2O1 | 0.05 (≈ 0.122 µM) | 5 (≈ 12.2 µM) | > 32 | –
C[C@]1(CN2CCc3nc(-c4ccc(Cl)cc4F)ccc3C2)Cn2cc([N+](=O)[O-])nc2O1 | 0.03 (≈ 0.0676 µM) | 5.28 (≈ 11.9 µM) | > 32 | –
C[C@]1(CN2CCc3nc(-c4cc(F)ccc4F)ccc3C2)Cn2cc([N+](=O)[O-])nc2O1 | 0.05 (≈ 0.117 µM) | 5.14 (≈ 12 µM) | > 32 | –
C[C@]1(CN2CCc3nc(-c4ccc(F)cc4)ccc3C2)Cn2cc([N+](=O)[O-])nc2O1 | < 0.031 | 4.83 (≈ 11.8 µM) | > 32 | Ratio ([6]; mdck, 1 h, 100000 µM): 1.09; solubility [7]: 143 µM (≈ 58.7 µg/mL); Papp ([1]; mdck, 1 h, 100000 µM): 19.29 ×10⁻⁶ cm/s; solubility [8]: 9.41 µM (≈ 3.85 µg/mL); Papp ([4]; mdck, 1 h, 100000 µM): 20.92 ×10⁻⁶ cm/s
C[C@]1(CN2CCc3nc(-c4cc(F)c(F)c(F)c4)ccc3C2)Cn2cc([N+](=O)[O-])nc2O1 | 0.08 (≈ 0.18 µM) | 0.76 (≈ 1.71 µM) | > 32 | solubility [7]: > 200 µM; solubility [8]: < 1 µM
C[C@]1(CN2CCc3nc(-c4cc(Cl)ccc4F)ccc3C2)Cn2cc([N+](=O)[O-])nc2O1 | 0.04 (≈ 0.0901 µM) | 8.79 (≈ 19.8 µM) | > 32 | –
C[C@]1(CN2CCc3nc(-c4ccc(F)c(F)c4)oc3C2)Cn2cc([N+](=O)[O-])nc2O1 | – | – | > 32 | –
C[C@]1(CN2CCc3nc(-c4ccc(Cl)c(F)c4)ccc3C2)Cn2cc([N+](=O)[O-])nc2O1 | 0.03 (≈ 0.0676 µM) | 3.79 (≈ 8.54 µM) | > 32 | –
C[C@]1(CN2CCc3nc(-c4ccc(F)cc4F)ccc3C2)Cn2cc([N+](=O)[O-])nc2O1 | 0.03 (≈ 0.0702 µM) | > 8 | 12.5 (≈ 29.2 µM) | –
C[C@]1(CN2CCc3nc(-c4cc(F)cc(Cl)c4)ccc3C2)Cn2cc([N+](=O)[O-])nc2O1 | 0.03 (≈ 0.0676 µM) | 6.41 (≈ 14.4 µM) | > 32 | –
C[C@]1(CN2CCc3nc(-c4cccc(Cl)c4F)ccc3C2)Cn2cc([N+](=O)[O-])nc2O1 | 0.03 (≈ 0.0676 µM) | 5.71 (≈ 12.9 µM) | > 32 | –
C[C@]1(CN2CCc3nc(-c4ccc(F)cc4)oc3C2)Cn2cc([N+](=O)[O-])nc2O1 | – | – | > 32 | –
C[C@]1(CN2CCc3nc(-c4cccc(F)c4)ccc3C2)Cn2cc([N+](=O)[O-])nc2O1 | 0.02 (≈ 0.0488 µM) | 6.5 (≈ 15.9 µM) | > 32 | –
C[C@]1(CN2CCc3nc(-c4cccc(F)c4F)ccc3C2)Cn2cc([N+](=O)[O-])nc2O1 | 0.03 (≈ 0.0702 µM) | 3.72 (≈ 8.7 µM) | > 32 | –
C[C@]1(CN2CCc3nc(-c4ccc(C(F)(F)F)cc4)ccc3C2)Cn2cc([N+](=O)[O-])nc2O1 | 0.03 (≈ 0.0653 µM) | > 8 | > 32 | –
C[C@]1(CN2CCc3nc(C4CCCCC4)ccc3C2)Cn2cc([N+](=O)[O-])nc2O1 | 0.03 (≈ 0.0755 µM) | 7.21 (≈ 18.1 µM) | – | –
C[C@]1(CN2CCc3nc(-c4ccc(F)c(F)c4)ccc3C2)Cn2cc([N+](=O)[O-])nc2O1 | 0.03 (≈ 0.0702 µM) | 3.88 (≈ 9.08 µM) | > 32 | –
C[C@]1(CN2CCc3nc(-c4ccc(F)cc4)sc3C2)Cn2cc([N+](=O)[O-])nc2O1 | – | – | > 32 | –
CO[C@H]1/C=C/O[C@@]2(C)Oc3c(C)c(O)c4c(O)c(c(/C=N/N5CCN(C)CC5)c(O)c4c3C2=O)NC(=O)/C(C)=C\C=C\[C@H](C)[C@H](O)[C@@H](C)[C@@H](O)[C@@H](C)[C@H](OC(C)=O)[C@@H]1C [RIFAMPIN] | 0.1 (≈ 0.122 µM) | 0.72 (≈ 0.875 µM) | > 32 | –
